Laboratory results as given in patent US20110190127A1, “NOVEL HERBICIDES” (SYNGENTA CROP PROTECTION, INC., priority 2008, published 2011).

What was measured:
Type in all cases: in vivo
[1] = system: Digitaria sanguinalis (DIGSA); experiment: Pre-emergence herbicidal activity, glasshouse pot test; details: Rate 500 g/ha; sprayed after one day cultivation, evaluated 20 days later; 100=total damage to plant, 0=no damage to plant
Method: (§1) Monocotyledonous and dicotyledonous test plants were sown in standard soil in pots. After cultivation for one day (pre-emergence) or after 10 days cultivation (post-emergence) under controlled conditions in a glasshouse, the plants were sprayed with an aqueous spray solution derived from the formulation of the technical active ingredient in 0.6 ml acetone and 45 ml formulation solution containing 10.6% Emulsogen EL (Registry number 61791-12-6), 42.2% N-methyl pyrrolidone, 42.2% dipropylene glycol monomethyl ether (Registry number 34590-94-8) and 0.2% X-77 (Registry number 11097-66-8). The test plants were then grown in a greenhouse under optimum conditions until, 15 days later for post-emergence and 20 days for pre-emergence, the test was evaluated (100=total damage to plant; 0=no damage to plant). Test Plants: Alopecurus myosuroides (ALOMY), Avena fatua (AVEFA), Lolium perenne (LOLPE), Setaria faberi (SETFA), Digitaria sanguinalis (DIGSA), Echinochloa crus-galli (ECHCG)

[2] = system: Echinochloa crus-galli (ECHCG); experiment: as above; details: Rate 500 g/ha; sprayed after one day cultivation, evaluated 20 days later; 100=total damage to plant, 0=no damage to plant
Method: as §1

Setaria faberi (SETFA) [3] = experiment: as above; details: Rate 500 g/ha; sprayed after one day cultivation, evaluated 20 days later; 100=total damage to plant, 0=no damage to plant
Method: as §1

Avena fatua (AVEFA) [4] = experiment: as above; details: Rate 500 g/ha; sprayed after one day cultivation, evaluated 20 days later; 100=total damage to plant, 0=no damage to plant
Method: as §1

Lolium perenne (LOLPE) [5] = experiment: as above; details: Rate 500 g/ha; sprayed after one day cultivation, evaluated 20 days later; 100=total damage to plant, 0=no damage to plant
Method: as §1

[6] = system: Alopecurus myosuroides (ALOMY); experiment: as above; details: Rate 500 g/ha; sprayed after one day cultivation, evaluated 20 days later; 100=total damage to plant, 0=no damage to plant
Method: as §1

[7] = system: Digitaria sanguinalis (DIGSA); experiment: Post-emergence herbicidal activity, glasshouse pot test; details: Rate 500 g/ha; sprayed after 10 days cultivation, evaluated 15 days later; 100=total damage to plant, 0=no damage to plant
Method: as §1

[8] = system: Echinochloa crus-galli (ECHCG); experiment: as above; details: Rate 500 g/ha; sprayed after 10 days cultivation, evaluated 15 days later; 100=total damage to plant, 0=no damage to plant
Method: as §1

Setaria faberi (SETFA) [9] = experiment: as above; details: Rate 500 g/ha; sprayed after 10 days cultivation, evaluated 15 days later; 100=total damage to plant, 0=no damage to plant
Method: as §1

Avena fatua (AVEFA) [10] = experiment: as above; details: Rate 500 g/ha; sprayed after 10 days cultivation, evaluated 15 days later; 100=total damage to plant, 0=no damage to plant
Method: as §1

Lolium perenne (LOLPE) [11] = experiment: as above; details: Rate 500 g/ha; sprayed after 10 days cultivation, evaluated 15 days later; 100=total damage to plant, 0=no damage to plant
Method: as §1

[12] = system: Alopecurus myosuroides (ALOMY); experiment: as above; details: Rate 500 g/ha; sprayed after 10 days cultivation, evaluated 15 days later; 100=total damage to plant, 0=no damage to plant
Method: as §1

SMILES	Pre-Emergence Activity DIGSA [1]	Pre-Emergence Activity ECHCG [2]	Pre-Emergence Activity SETFA (Setaria faberi (SETFA) [3])	Pre-Emergence Activity AVEFA (Avena fatua (AVEFA) [4])	Pre-Emergence Activity LOLPE (Lolium perenne (LOLPE) [5])	Pre-Emergence Activity ALOMY [6]	Post-Emergence Activity DIGSA [7]	Post-Emergence Activity ECHCG [8]	Post-Emergence Activity SETFA (Setaria faberi (SETFA) [9])	Post-Emergence Activity AVEFA (Avena fatua (AVEFA) [10])	Post-Emergence Activity LOLPE (Lolium perenne (LOLPE) [11])	Post-Emergence Activity ALOMY [12]
CCc1ccc(-c2ccc(Cl)cc2Cl)cc1C1=C(Cl)C(C)(C)OC(C)(C)C1=O [Compound A1]	70	0	0	0	20	10	100	100	60	50	60	40
CCc1ccc(-c2ccc(Cl)cc2Cl)cc1C1=C(SC)C(C)(C)OC(C)(C)C1=O [Compound A2]	20	20	10	0	20	0	0	20	10	0	0	0
